# Target: FLT3 kinase (Homo sapiens (Human), UniProt P36888)
# Test: Competition binding assay (Kd), FLT3
# Conditions: competition binding
# Chain of FLT3 kinase (P36888 27-993): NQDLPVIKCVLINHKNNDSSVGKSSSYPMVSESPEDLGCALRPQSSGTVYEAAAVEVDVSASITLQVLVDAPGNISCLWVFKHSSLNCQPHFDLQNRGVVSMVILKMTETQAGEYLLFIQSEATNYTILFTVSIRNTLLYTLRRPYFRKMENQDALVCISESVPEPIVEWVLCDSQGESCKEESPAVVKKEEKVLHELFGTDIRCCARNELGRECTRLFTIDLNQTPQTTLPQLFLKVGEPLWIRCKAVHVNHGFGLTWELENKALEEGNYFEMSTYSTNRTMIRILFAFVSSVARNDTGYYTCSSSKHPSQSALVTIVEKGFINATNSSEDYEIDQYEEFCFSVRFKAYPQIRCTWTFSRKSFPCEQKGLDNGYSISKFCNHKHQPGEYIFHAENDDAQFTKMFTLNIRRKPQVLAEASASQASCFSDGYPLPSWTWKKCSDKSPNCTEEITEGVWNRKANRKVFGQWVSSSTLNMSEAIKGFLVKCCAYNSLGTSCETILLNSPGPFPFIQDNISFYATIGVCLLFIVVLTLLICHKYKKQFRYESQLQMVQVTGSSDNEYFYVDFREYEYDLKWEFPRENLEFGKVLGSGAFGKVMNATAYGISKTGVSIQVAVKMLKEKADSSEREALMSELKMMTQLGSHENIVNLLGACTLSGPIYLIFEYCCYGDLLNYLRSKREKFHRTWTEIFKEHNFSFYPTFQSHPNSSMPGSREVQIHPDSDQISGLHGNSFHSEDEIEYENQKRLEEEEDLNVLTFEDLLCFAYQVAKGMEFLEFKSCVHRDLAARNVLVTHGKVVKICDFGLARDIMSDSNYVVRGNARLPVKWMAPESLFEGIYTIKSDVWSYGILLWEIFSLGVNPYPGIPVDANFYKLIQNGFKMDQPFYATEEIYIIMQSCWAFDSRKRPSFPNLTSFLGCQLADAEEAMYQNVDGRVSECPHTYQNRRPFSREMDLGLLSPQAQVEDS
row,Structure (SMILES),Kd [nM]
1,"COc1cc2nc(-c3ccc(CC(=O)Nc4cc(C5(C(F)(F)F)CC5)on4)c(F)c3)cnc2cc1OCC(C)(C)O [Example 249, 2-[2-fluoro-4-[6-(2-hydroxy-2-methyl-propoxy)-7-methoxy-quinoxalin-2-yl]phenyl]-N-[5-[1-(trifluoro-methyl)cyclopropyl]isoxazol-3-yl]acetamide]",< 5

# Target: FLT3-ITD (Homo sapiens (Human), UniProt P36888, INS600HVDFREYEYD)
# Test: pFLT3 MSD assay, Ba/F3 FLT3-ITD
# Format: cell-based
# Conditions: Ba/F3 FLT3-ITD cells, 2 hours, read-out: BaF3-FLT3-ITD pFlt3 IC50
# Chain of FLT3-ITD (P36888 other isoform, or with tags, fused parts or gaps limits assumed, stated change not applied): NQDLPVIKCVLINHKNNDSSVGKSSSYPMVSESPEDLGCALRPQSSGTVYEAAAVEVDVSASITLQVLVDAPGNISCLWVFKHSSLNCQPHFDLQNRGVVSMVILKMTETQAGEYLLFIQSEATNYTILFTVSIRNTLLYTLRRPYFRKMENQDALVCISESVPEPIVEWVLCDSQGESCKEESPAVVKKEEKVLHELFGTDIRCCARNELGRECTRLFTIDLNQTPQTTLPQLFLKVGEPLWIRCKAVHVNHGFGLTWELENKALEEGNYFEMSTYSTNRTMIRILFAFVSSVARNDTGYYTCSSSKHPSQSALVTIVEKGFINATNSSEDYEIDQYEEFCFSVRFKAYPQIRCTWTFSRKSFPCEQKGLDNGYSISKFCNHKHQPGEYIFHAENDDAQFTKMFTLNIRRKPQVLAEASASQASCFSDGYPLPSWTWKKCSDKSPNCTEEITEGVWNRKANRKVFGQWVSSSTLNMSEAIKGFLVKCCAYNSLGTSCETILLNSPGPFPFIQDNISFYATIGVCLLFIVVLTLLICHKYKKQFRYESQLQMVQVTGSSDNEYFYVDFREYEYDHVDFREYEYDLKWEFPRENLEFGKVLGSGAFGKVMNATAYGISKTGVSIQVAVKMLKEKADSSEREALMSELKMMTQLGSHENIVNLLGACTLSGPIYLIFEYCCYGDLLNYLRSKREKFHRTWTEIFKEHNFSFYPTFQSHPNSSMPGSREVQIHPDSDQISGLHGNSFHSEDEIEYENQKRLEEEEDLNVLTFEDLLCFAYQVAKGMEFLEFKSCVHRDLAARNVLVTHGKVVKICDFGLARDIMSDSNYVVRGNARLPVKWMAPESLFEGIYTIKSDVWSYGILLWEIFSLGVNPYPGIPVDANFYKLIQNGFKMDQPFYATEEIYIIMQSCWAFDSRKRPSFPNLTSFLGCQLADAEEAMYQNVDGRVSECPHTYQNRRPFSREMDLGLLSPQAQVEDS
row,Structure (SMILES),IC50 [nM]
1,"COc1cc2ncc(-c3ccc(CC(=O)Nc4cc(C5(C(F)(F)F)CC5)on4)cc3)nc2cc1OC [Example 1, 2-(4-(6,7-dimethoxyquinoxalin-2-yl)phenyl)-N-(5-(1-(trifluoromethyl)cyclopropyl)isoxazol-3-yl)acetamide]",< 10
2,"CC(C)(C)c1cc(NC(=O)Cc2ccc(-c3cnc4[nH]ccc4c3)cc2)no1 [Example 25, 2-(4-(1H-pyrrolo[2,3-b]pyridin-5-yl)phenyl)-N-(5-(tert-butyl)isoxazol-3-yl)acetamide]",< 10
3,"CC(C)(c1cc(NC(=O)Cc2ccc(-c3cnc4[nH]ccc4c3)cc2)no1)C(F)(F)F [Example 26, 2-(4-(1H-pyrrolo[2,3-b]pyridin-5-yl)phenyl)-N-(5-(1,1,1-trifluoro-2-methylpropan-2-yl)isoxazol-3-yl)acetamide]",< 10
4,"CC(C)(C)c1cc(NC(=O)Cc2ccc(-c3cnc4[nH]ccc4c3)cc2F)no1 [Example 27, N-(5-(tert-butyl)isoxazol-3-yl)-2-(2-fluoro-4-(1H-pyrrolo[2,3-b]pyridin-5-yl)phenyl)acetamide]",< 10
5,"O=C(Cc1ccc(-c2cnc3[nH]ccc3c2)cc1F)Nc1cc(C2(C(F)(F)F)CC2)on1 [Example 28, 2-(2-fluoro-4-(1H-pyrrolo[2,3-b]pyridin-5-yl)phenyl)-N-(5-(1-(trifluoromethyl)cyclopropyl)isoxazol-3-yl)acetamide]",< 10
6,"CC(C)(c1cc(NC(=O)Cc2ccc(-c3cnc4[nH]ccc4c3)cc2F)no1)C(F)(F)F [Example 29, 2-(2-fluoro-4-(1H-pyrrolo[2,3-b]pyridin-5-yl)phenyl)-N-(5-(1,1,1-trifluoro-2-methylpropan-2-yl)isoxazol-3-yl)acetamide]",< 10
7,"O=C(Cc1ccc(-c2cnc3[nH]ccc3n2)cc1F)Nc1cc(C2(C(F)(F)F)CC2)on1 [Example 30, 2-(2-fluoro-4-(5H-pyrrolo[2,3-b]pyrazin-2-yl)phenyl)-N-(5-(1-(trifluoromethyl)cyclopropyl)isoxazol-3-yl)acetamide]",< 10
8,"CC(C)(C)c1cc(NC(=O)Cc2ccc(-c3cnc4[nH]ncc4c3)cc2)no1 [Example 31, 2-(4-(1H-pyrazolo[3,4-b]pyridin-5-yl)phenyl)-N-(5-(tert-butyl)isoxazol-3-yl)acetamide]",< 10
9,"CC(C)(C)c1cc(NC(=O)Cc2ccc(-c3cnc4[nH]ncc4c3)cc2F)no1 [Example 32, N-(5-(tert-butyl)isoxazol-3-yl)-2-(2-fluoro-4-(1H-pyrazolo[3,4-b]pyridin-5-yl)phenyl)acetamide]",< 10
10,"O=C(Cc1ccc(-c2cnc3[nH]ncc3c2)cc1F)Nc1cc(C2(C(F)(F)F)CC2)on1 [Example 33, 2-(2-fluoro-4-(1H-pyrazolo[3,4-b]pyridin-5-yl)phenyl)-N-(5-(1-(trifluoromethyl)cyclopropyl)isoxazol-3-yl)acetamide]",< 10
11,"CC(C)(c1cc(NC(=O)Cc2ccc(-c3cnc4[nH]ncc4c3)cc2F)no1)C(F)(F)F [Example 34, 2-(2-fluoro-4-(1H-pyrazolo[3,4-b]pyridin-5-yl)phenyl)-N-(5-(1,1,1-trifluoro-2-methylpropan-2-yl)isoxazol-3-yl)acetamide]",< 10
12,"COc1n[nH]c2ncc(-c3ccc(CC(=O)Nc4cc(C(C)(C)C(F)(F)F)on4)cc3)cc12 [Example 35, 2-(4-(3-methoxy-1H-pyrazolo[3,4-b]pyridin-5-yl)phenyl)-N-(5-(1,1,1-trifluoro-2-methylpropan-2-yl)isoxazol-3-yl)acetamide]",< 10
13,"COc1cc(OC)c2cc(-c3ccc(CC(=O)Nc4cc(C5(C(F)(F)F)CC5)on4)c(F)c3)cnc2c1 [Example 36, 2-(4-(5,7-dimethoxyquinolin-3-yl)-2-fluorophenyl)-N-(5-(1-(trifluoromethyl)cyclopropyl)isoxazol-3-yl)acetamide]",< 10
14,"CC(C)(C)c1cc(NC(=O)Cc2ccc(-c3cnc4[nH]nc(C#N)c4c3)cc2)no1 [Example 37, N-(5-(tert-butyl)isoxazol-3-yl)-2-(4-(3-cyano-1H-pyrazolo[3,4-b]pyridin-5-yl)phenyl)acetamide]",< 10
15,"CC(C)(C)c1cc(NC(=O)Cc2ccc(-c3cnc4[nH]nc(Cl)c4c3)cc2)no1 [Example 38, N-(5-(tert-butyl)isoxazol-3-yl)-2-(4-(3-chloro-1H-pyrazolo[3,4-b]pyridin-5-yl)phenyl)acetamide]",< 10
16,"CCOc1n[nH]c2ncc(-c3ccc(CC(=O)Nc4cc(C(C)(C)C(F)(F)F)on4)cc3)cc12 [Example 39, 2-(4-(3-ethoxy-1H-pyrazolo[3,4-b]pyridin-5-yl)phenyl)-N-(5-(1,1,1-trifluoro-2-methylpropan-2-yl)isoxazol-3-yl)acetamide]",< 10
17,"Cc1n[nH]c2ncc(-c3ccc(CC(=O)Nc4cc(C(C)(C)C)on4)cc3)cc12 [Example 40, N-(5-(tert-butyl)isoxazol-3-yl)-2-(4-(3-methyl-1H-pyrazolo[3,4-b]pyridin-5-yl)phenyl)acetamide]",< 10
18,"CC(C)(c1cc(NC(=O)Cc2ccc(-c3cnc4[nH]nnc4c3)cc2)no1)C(F)(F)F [Example 41, 2-(4-(3H-[1,2,3]triazolo[4,5-b]pyridin-6-yl)phenyl)-N-(5-(1,1,1-trifluoro-2-methylpropan-2-yl)isoxazol-3-yl)acetamide]",< 10
19,"COc1cc2ncc(-c3ccc(CC(=O)Nc4cc(C5(C(F)(F)F)CC5)on4)cc3F)nc2cc1OC [Example 42, 2-(4-(6,7-dimethoxyquinoxalin-2-yl)-3-fluorophenyl)-N-(5-(1-(trifluoromethyl)cyclopropyl)isoxazol-3-yl)acetamide]",< 10
20,"COc1cc2ncc(-c3ccc(CC(=O)Nc4cc(C(C)(C)C)on4)c(F)c3)nc2cc1OC [Example 43, N-(5-(tert-butyl)isoxazol-3-yl)-2-(4-(6,7-dimethoxyquinoxalin-2-yl)-2-fluorophenyl)acetamide]",< 10
21,"CC(C)(c1cc(NC(=O)Cc2ccc(-c3cnc4[nH]ncc4c3)cc2)no1)C(F)(F)F [Example 44, 2-(4-(1H-pyrazolo[3,4-b]pyridin-5-yl)phenyl)-N-(5-(1,1,1-trifluoro-2-methylpropan-2-yl)isoxazol-3-yl)acetamide]",< 10
22,"CN(C)C(=O)c1n[nH]c2ncc(-c3ccc(CC(=O)Nc4cc(C(C)(C)C)on4)cc3)cc12 [Example 45, 5-(4-(2-((5-(tert-butyl)isoxazol-3-yl)amino)-2-oxoethyl)phenyl)-N,N-dimethyl-1H-pyrazolo[3,4-b]pyridine-3-carboxamide]",< 10
23,"COCCOc1n[nH]c2ncc(-c3ccc(CC(=O)Nc4cc(C(C)(C)C(F)(F)F)on4)cc3)cc12 [Example 47, 2-(4-(3-(2-methoxyethoxy)-1H-pyrazolo[3,4-b]pyridin-5-yl)phenyl)-N-(5-(1,1,1-trifluoro-2-methylpropan-2-yl)isoxazol-3-yl)acetamide]",< 10

# Target: KIT kinase (Homo sapiens (Human), UniProt P10721)
# Test: Competition binding assay (Kd), KIT
# Conditions: competition binding
# Method in brief: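 Kd derived from eleven-point threefold serial dilutions of compound competing with bead-bound ligand for kinase; bound kinase eluted and measured by quantitative PCR. Kinase supplied either as a T7 phage fusion or expressed in HEK-293 cells with a DNA tag; DMSO served as control.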
# Chain of KIT kinase (P10721 26-976): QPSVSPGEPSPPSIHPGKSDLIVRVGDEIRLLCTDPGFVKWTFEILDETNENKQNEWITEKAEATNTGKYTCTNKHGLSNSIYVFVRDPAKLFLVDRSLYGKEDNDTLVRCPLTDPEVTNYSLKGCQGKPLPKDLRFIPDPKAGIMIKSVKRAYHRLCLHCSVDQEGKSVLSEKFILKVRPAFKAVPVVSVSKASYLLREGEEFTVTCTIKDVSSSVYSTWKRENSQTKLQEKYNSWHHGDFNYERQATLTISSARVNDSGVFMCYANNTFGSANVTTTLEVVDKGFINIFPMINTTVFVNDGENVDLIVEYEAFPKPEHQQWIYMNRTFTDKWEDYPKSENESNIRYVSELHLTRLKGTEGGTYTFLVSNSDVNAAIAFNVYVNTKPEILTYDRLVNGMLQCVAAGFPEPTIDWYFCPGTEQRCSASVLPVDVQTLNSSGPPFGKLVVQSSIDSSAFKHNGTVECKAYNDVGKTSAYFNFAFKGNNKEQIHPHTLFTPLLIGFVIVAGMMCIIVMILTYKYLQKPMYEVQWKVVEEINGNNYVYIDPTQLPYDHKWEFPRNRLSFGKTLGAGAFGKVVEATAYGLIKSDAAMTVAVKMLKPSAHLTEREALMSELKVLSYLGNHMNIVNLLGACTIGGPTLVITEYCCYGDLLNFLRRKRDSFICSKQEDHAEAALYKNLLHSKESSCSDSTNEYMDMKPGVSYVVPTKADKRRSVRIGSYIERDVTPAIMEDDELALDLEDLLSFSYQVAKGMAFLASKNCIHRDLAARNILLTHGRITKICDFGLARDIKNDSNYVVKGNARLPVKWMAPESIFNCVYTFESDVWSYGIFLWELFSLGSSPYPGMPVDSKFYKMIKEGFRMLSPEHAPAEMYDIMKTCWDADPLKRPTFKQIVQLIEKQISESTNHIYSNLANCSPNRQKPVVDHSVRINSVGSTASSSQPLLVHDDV
row,Structure (SMILES),Kd [nM]
1,"COc1cc2nc(-c3ccc(CC(=O)Nc4cc(C5(C(F)(F)F)CC5)on4)c(F)c3)cnc2cc1OCC(C)(C)O [Example 249, 2-[2-fluoro-4-[6-(2-hydroxy-2-methyl-propoxy)-7-methoxy-quinoxalin-2-yl]phenyl]-N-[5-[1-(trifluoro-methyl)cyclopropyl]isoxazol-3-yl]acetamide]",< 5
